In the RepoRT retention time repository (doi:10.1016/j.jhazmat.2019.121712) one finds LC retention time data, which are given here for 95 compounds.

This data set is described as follows: Thermo Scientific Acclaim RSLC 120 C18, 100 × 2.1 mm, 2.2 µm, 30 °C; A: 90% water + 10% methanol + 0.01% formic acid + 5 mM ammonium formate; B: methanol + 0.01% formic acid + 5 mM ammonium formate; gradient (min/%B) 0.1/1 3/39 14/99.9 16/99.9. The conditions noted are these: stereoisomer not certain.
As to `CNCC(O)c1cccc(O)c1` (stereo not given), the LC retention time was determined as 1.93 min.

For the compound `CC(C)NC(=O)c1ccccc1O`, the LC retention time was 7.14 min.

Regarding `O=C(Nc1ccc(C(=O)O)c(O)c1)c1ccccc1`, the LC retention time was determined as 5.47 min.

For the compound `C=CCN1CCCC1CNC(=O)c1cc2n[nH]nc2cc1OC` (stereo not given), the LC retention time was found to be 3.62 min.

In the case of `OCCN1CCN(CCCN2c3ccccc3C=Cc3ccccc32)CC1`, the LC retention time stood at 7.83 min.

As to `CCCc1ccc(C(=O)c2cn(CCC)c3ccccc23)c2ccccc12`, the LC retention time came to 12.7 min.

With `C=CC(=O)NC(C)(C)CS(=O)(=O)O`, the LC retention time is 2.8 min.

With `Cc1cnc(C(=O)NCCc2ccc(S(=O)(=O)NC(=O)NC3CCCCC3)cc2)cn1`, the LC retention time was found to be 8.11 min.

As for `CCOC(=O)CCN(Cc1ccccc1)SN(C)C(=O)ON=C(C)SC`, the LC retention time came to 10.8 min.

As to `CC(Cc1ccc2c(c1)OCO2)N(C)C` (stereo not given), the LC retention time is 4.08 min.

As for `CCOP(=S)(OCC)Oc1cnccn1`, the LC retention time was 8.35 min.

With `CC12CCC3C(CCC4=CC(=O)CCC43C)C1CCC2=O` (stereo not given), the LC retention time was determined as 9.36 min.

Regarding `CN(C)P(=O)(OP(=O)(N(C)C)N(C)C)N(C)C`, the LC retention time stood at 5.36 min.

Regarding `CCOC1Oc2ccc(OS(C)(=O)=O)cc2C1(C)C` (stereo not given), the LC retention time amounted to 9.14 min.

With `CC1=C(C)S(=O)(=O)CCS1(=O)=O`, the LC retention time was 3.73 min.

Consider `CCOP(=S)(OCC)Oc1ccc(=O)n(-c2ccccc2)n1`, for which the LC retention time turned out to be 9.79 min.

For the compound `CCN(CCO)CCn1c(Cc2ccccc2)nc2c1c(=O)n(C)c(=O)n2C`, the LC retention time is 5.24 min.

Regarding `OC(CCN1CCCC1)(c1ccccc1)C1CCCCC1` (stereo not given), the LC retention time is 7.8 min.

`CC(C)(C)NCC(O)COc1ccc(NC(=O)NC2CCCCC2)cc1` (stereo not given): the LC retention time amounted to 6.58 min.

In the case of `CCC(=O)OC(OP(=O)(CCCCc1ccccc1)CC(=O)N1CC(C2CCCCC2)CC1C(=O)O)C(C)C` (stereo not given), the LC retention time came out at 12.4 min.

Consider `CN(C)C(=O)Oc1cc(OC(=O)N(C)C)cc(C(O)CNC(C)(C)C)c1` (stereo not given), for which the LC retention time is 5.16 min.

Take `CCOc1nc2cccc(C(=O)OC(C)OC(=O)OC3CCCCC3)c2n1Cc1ccc(-c2ccccc2-c2nn[nH]n2)cc1` (stereo not given): the LC retention time stood at 12.2 min.

Consider `CCN1CCCC1CNC(=O)c1cc(S(=O)(=O)CC)c(N)cc1OC` (stereo not given), for which the LC retention time turned out to be 3.88 min.

Regarding `CCCc1nc(C)c2c(=O)[nH]c(-c3cc(S(=O)(=O)N4CCN(CC)CC4)ccc3OCC)nn12`, the LC retention time came out at 8.11 min.

With `Cc1ccccc1N1CCN(CCc2nnc3n2CCCC3)CC1`, the LC retention time was 5.66 min.

As for `CN(C)C(=O)SCCCCOc1ccccc1`, the LC retention time was 10.7 min.

Turning to `CCCC(NC)C(=O)c1ccc2c(c1)OCO2` (stereo not given), the LC retention time was found to be 4.99 min.

For `CCCCCCn1cc(C(=O)c2cccc3ccccc23)c2ccccc21`, the LC retention time was found to be 12.9 min.

Turning to `OCC(O)CN1CCN(c2ccccc2)CC1` (stereo not given), the LC retention time was 3.79 min.

Turning to `Cc1cc(C(C)(C)C)c(O)c(C)c1CC1=NCCN1`, the LC retention time came out at 6.99 min.

As to `CCCC(C(=O)c1ccc(C)cc1)N1CCCC1` (stereo not given), the LC retention time worked out at 6.03 min.

As to `CN(C)CCC(c1ccccc1)c1ccccn1` (stereo not given), the LC retention time is 4.98 min.

For the compound `CCCCCn1cc(C(=O)NC23CC4CC(CC(C4)C2)C3)c2ccccc21`, the LC retention time stood at 13.2 min.

Take `CC(CN1c2ccccc2Sc2cccnc21)N(C)C` (stereo not given): the LC retention time worked out at 6.47 min.

For the compound `CCC(CC)OC1C=C(C(=O)O)CC(N)C1NC(C)=O` (stereo not given), the LC retention time came to 4.73 min.

In the case of `CNC(=O)ON=CC(C)(C)SC`, the LC retention time was 6.17 min.

In the case of `CC(C)(C)Nc1nc(N)[nH]c(=O)n1`, the LC retention time turned out to be 3.99 min.

Turning to `CCCCN1CC(=O)N2C(Cc3c([nH]c4ccccc34)C2c2ccc3c(c2)OCO3)C1=O` (stereo not given), the LC retention time was 10.2 min.

Regarding `COC(=O)c1ccccc1C(=O)c1ccc(OCCN2CCCCC2)cc1`, the LC retention time stood at 5.44 min.

With `CN1CCN(CCCN2c3ccccc3Sc3ccccc32)CC1`, the LC retention time is 8.8 min.

Consider `CC(C)C1(NC(=O)C2CC3c4cccc5[nH]cc(c45)CC3N(C)C2)OC2(O)C3CCCN3C(=O)C(Cc3ccccc3)N2C1=O` (stereo not given), for which the LC retention time turned out to be 8.17 min.

For `CCCCCn1cc(C(=O)NC(C(N)=O)C(C)(C)C)c2ccccc21` (stereo not given), the LC retention time was 11.1 min.

In the case of `CC(C)C(O)(C(=O)OCC1=CC[N+]2([O-])CCC(O)C12)C(C)O` (stereo not given), the LC retention time was 3.94 min.

For `CCC(C)C(=O)OC1CC(O)C=C2C=CC(C)C(CCC(O)CC(O)CC(=O)O)C21` (stereo not given), the LC retention time turned out to be 8.36 min.

As to `CNCCOC(c1ccccc1)c1ccccc1C` (stereo not given), the LC retention time was determined as 7.54 min.

With `COC(=O)C1C2CC3c4[nH]c5cc(OC)ccc5c4CCN3CC2CC(OC(=O)c2cc(OC)c(OC)c(OC)c2)C1OC` (stereo not given), the LC retention time turned out to be 8.47 min.

On to `COC(=O)Nc1nc2ccc(S(=O)c3ccccc3)cc2[nH]1` (stereo not given), for which the LC retention time came to 6.66 min.

With `CCCCCn1cc(C(=O)Oc2cccc3cccnc23)c2ccccc21`, the LC retention time was determined as 11.9 min.

For `CCCCc1c(C)nc(NCC)[nH]c1=O`, the LC retention time came out at 8 min.

As for `COc1ccc2[nH]cc(CCN(C)C)c2c1`, the LC retention time was 3.98 min.

With `CC1(C)SC2C(NC(=O)C(N)c3ccccc3)C(=O)N2C1C(=O)O` (stereo not given), the LC retention time turned out to be 4.21 min.

On to `COP(N)(=O)SC` (stereo not given), for which the LC retention time came out at 2.76 min.

Consider `Nc1ccc(O)c(C(=O)O)c1`, for which the LC retention time is 1.63 min.

As to `CCN(CC)C(=O)c1cccnc1`, the LC retention time turned out to be 4.64 min.

Take `OCCN(CCO)c1nc(N2CCCCC2)c2nc(N(CCO)CCO)nc(N3CCCCC3)c2n1`: the LC retention time turned out to be 9.36 min.

With `CCOc1ccc(C(C)(C)COCc2cccc(Oc3ccccc3)c2)cc1`, the LC retention time was determined as 14.1 min.

`O=C(OC1CC2CCC(C1)[N+]21CCCC1)C(O)(c1ccccc1)c1ccccc1` (stereo not given): the LC retention time came out at 5.72 min.

In the case of `CNCC1CCCCC1(O)c1cccc(O)c1` (stereo not given), the LC retention time is 4.28 min.

`CN(C)CCc1c[nH]c2ccccc12`: the LC retention time came out at 3.94 min.

Consider `Nc1ccc(S(N)(=O)=O)cc1`, for which the LC retention time amounted to 2.23 min.

In the case of `COc1ccc2c(c1O)-c1c3c(cc4c1C(C2)N(C)CC4)OCO3` (stereo not given), the LC retention time turned out to be 4.36 min.

`Cc1ccc(S(=O)(=O)NC(=O)NC2C3CCC(C)(C2O)C3(C)C)cc1` (stereo not given): the LC retention time was determined as 9.79 min.

Regarding `CC(=O)Nc1ccc(OC(=O)c2ccccc2OC(C)=O)cc1`, the LC retention time is 7.41 min.

Take `COC=C(C(=O)OC)c1ccccc1Oc1cc(Oc2ccccc2C#N)ncn1`: the LC retention time was 9.02 min.

As to `CC(CN(C)C)CN1c2ccccc2Sc2ccccc21` (stereo not given), the LC retention time was 8.1 min.

On to `CC(N)C(O)c1ccccc1` (stereo not given), for which the LC retention time amounted to 3.68 min.

With `CC(=O)Nc1ccc(S(=O)(=O)Nc2ncccn2)cc1`, the LC retention time turned out to be 4.11 min.

Turning to `COc1cc2nc(N3CCN(C(=O)c4ccco4)CC3)nc(N)c2cc1OC`, the LC retention time worked out at 5.34 min.

On to `CC(C)N(C(=O)CS(=O)(=O)O)c1ccccc1`, for which the LC retention time was determined as 5.46 min.

Turning to `CCCNC(C)Cc1ccccc1` (stereo not given), the LC retention time was determined as 4.83 min.

On to `CON=C(C(=O)NC1C(=O)N2C(C(=O)[O-])=C(C[n+]3cccc4c3CCCC4)CSC12)c1csc(N)n1` (stereo not given), for which the LC retention time was 3.76 min.

As for `Cc1ccc(C(C)NC(=O)C(NC(=O)OC(C)C)C(C)C)cc1` (stereo not given), the LC retention time was 9.82 min.

In the case of `COC(C)C(O)(C(=O)OCC1=CC[N+]2([O-])CCC(O)C12)C(C)C` (stereo not given), the LC retention time amounted to 3.49 min.

Regarding `CN1CCN(CCC=C2c3ccccc3Sc3ccc(S(=O)(=O)N(C)C)cc32)CC1`, the LC retention time stood at 8.38 min.

On to `CCC1OC(=O)CC(O)C(C)C(OC2OC(C)C(O)C(N(C)C)C2O)C(CCN2CC(C)CC(C)C2)CC(C)C(=O)C=CC(C)=CC1COC1OC(C)C(O)C(OC)C1OC` (stereo not given), for which the LC retention time stood at 6.69 min.

`CCC(NC)C(=O)c1ccccc1` (stereo not given): the LC retention time turned out to be 4.26 min.

For `COc1cc(C(=O)OCCCN(C)CCN(C)CCCOC(=O)c2cc(OC)c(OC)c(OC)c2)cc(OC)c1OC`, the LC retention time was 7.54 min.

For `CC(Cc1ccccc1)NCCC(c1ccccc1)c1ccccc1` (stereo not given), the LC retention time stood at 8.89 min.

As for `CNC(=O)Oc1cc(C)c(S(C)(=O)=O)c(C)c1`, the LC retention time is 5.28 min.

Regarding `CCOC(=O)C(CCc1ccccc1)NC(C)C(=O)N1CC2(CC1C(=O)O)SCCS2` (stereo not given), the LC retention time was 8.23 min.

As for `Cc1ccc(N)c(C)c1`, the LC retention time is 5.04 min.

With `CNCCCC12CCC(c3ccccc31)c1ccccc12`, the LC retention time was 8.08 min.

Take `CCC(C)OC(=O)N1CCCCC1CCO` (stereo not given): the LC retention time amounted to 8.83 min.

For `CCc1cc2cc(OC)c(OC)cc2c(Cc2ccccc2)n1`, the LC retention time turned out to be 8.29 min.

On to `CCCN(CCC)CCc1cccc2c1CC(=O)N2`, for which the LC retention time was determined as 3.98 min.

On to `NCC1CCC(C(=O)O)CC1` (stereo not given), for which the LC retention time was 1.79 min.

On to `CCc1cccc(CC)c1N(COC)C(=O)CS(=O)(=O)O`, for which the LC retention time is 7.19 min.

As for `CC(C)N(C(=O)C(=O)O)c1ccccc1`, the LC retention time was 5.13 min.

For `COC(=O)c1ccccc1S(=O)(=O)NC(=O)Nc1nc(C)cc(C)n1`, the LC retention time worked out at 6.92 min.

As for `CN=CNc1ccc(C)cc1C`, the LC retention time was 4.44 min.

`CC=C(C)C(=O)OC1CC(OC(C)=O)C2(C(=O)OC)COC3C2C12COC(O)(C(=O)OC)C2C(C)(C12OC1(C)C1CC2OC2OC=CC21O)C3O` (stereo not given): the LC retention time turned out to be 7.56 min.

With `Nc1nc2ccccc2[nH]1`, the LC retention time is 3.74 min.

For `CCn1cc(C(=O)O)c(=O)c2ccc(C)nc21`, the LC retention time was 7.06 min.

Regarding `CCCCCn1cc(C(=O)Cc2ccc(OC)cc2)c2ccccc21`, the LC retention time stood at 11.6 min.

With `COc1ccc2[nH]cc(CCN(C(C)C)C(C)C)c2c1`, the LC retention time worked out at 4.81 min.
